Our source for the IC50 values is patent publication US7060699B2, “Aryl and heteroaryl diazabicycloalkanes, their preparation and use” (priority 2000, dated 2006).

One assay addresses T1, serotonin transporter (Rattus norvegicus, UniProt P31652).
T1 construct: Cerebral cortices from male Wistar rats (150–200 g) are homogenized; from tissue; host or cells: rat cerebral cortex synaptosomes (P2 pellet)
Nature of the assay: In vitro inhibition of 3H-5-hydroxytryptamine (3H-5-HT, serotonin) uptake in cortical synaptosomes. It is filed as biochemical. The procedure:
In Vitro Inhibition of ^3H-5-hydroxytryptamine (^3H-5-HT, Serotonin) Uptake in Cortical Synaptosomes
Serotonin transporters/uptake sites on nerve terminals presumably function to terminate neuronal signaling by removing serotonin from the synaptic cleft. The activity of the serotonin transporter integral protein can be measured in vitro by synaptosomal uptake of ^3H-5-hydroxytryptamine.
Preparations are performed at 0–4° C. unless otherwise indicated. Cerebral cortices from male Wistar rats (150–200 g) are homogenized for 5–10 sec in 100 volumes of ice-cold 0.32M sucrose containing 1 mM pargyline using a motor driven teflon pestle in a glass homogenizing vessel. Monoamine oxidase activity will be inhibited in the presence of pargyline. The homogenate is centrifuged at 1000×g for 10 min. The resulting supernatant is then centrifuged at 27,000×g for 50 min and the supernatant is discarded.
Aliquots of 4.0 ml tissue suspension are added to 100 µl of test solution and 100 μl of ^3H-5-HT (1 nM, final concentration), mixed and incubated for 30 min at 37° C. Non-specific uptake is determined using citalopram (1 μM, final concentration). After incubation the samples are poured directly onto Whatman GF/C glass fibre filters under suction. The filters are then washed three times with 5 ml of ice-cold 0.9% (w/v) NaCl solution. The amount of radioactivity on the filters is determined by conventional liquid scintillation counting. Specific uptake is calculated as the difference between total uptake and non-specific uptake.
where C0 is specific binding in control assays and Cx is the specific binding in the test assay (the calculations assume normal mass-action kinetics).

Assay [1] addresses nAChR formed by the α7 subunit isoform (Rattus norvegicus, UniProt Q05941). Nature of the assay: biochemical. It counts as binding.
The target in assay [2] is nAChR comprised of α4 and β2 subunits (Rattus norvegicus, UniProt P09483+P12390). Put plainly: In vitro inhibition of 3H-cytisine binding.
The mark [3] stands for this setting: cerebral cortex homogenate from male Wistar rats, 3H-cytisine 1 nM, 90 min at 2° C., read-out: 3H-cytisine binding IC50.

Where two headings read alike, the source gives them in different places. A value given as a limit tells only on which side of the number the result lay.

The term IC50 denotes the concentration at which inhibition is half-maximal.

T1 sequence (P31652 whole entry): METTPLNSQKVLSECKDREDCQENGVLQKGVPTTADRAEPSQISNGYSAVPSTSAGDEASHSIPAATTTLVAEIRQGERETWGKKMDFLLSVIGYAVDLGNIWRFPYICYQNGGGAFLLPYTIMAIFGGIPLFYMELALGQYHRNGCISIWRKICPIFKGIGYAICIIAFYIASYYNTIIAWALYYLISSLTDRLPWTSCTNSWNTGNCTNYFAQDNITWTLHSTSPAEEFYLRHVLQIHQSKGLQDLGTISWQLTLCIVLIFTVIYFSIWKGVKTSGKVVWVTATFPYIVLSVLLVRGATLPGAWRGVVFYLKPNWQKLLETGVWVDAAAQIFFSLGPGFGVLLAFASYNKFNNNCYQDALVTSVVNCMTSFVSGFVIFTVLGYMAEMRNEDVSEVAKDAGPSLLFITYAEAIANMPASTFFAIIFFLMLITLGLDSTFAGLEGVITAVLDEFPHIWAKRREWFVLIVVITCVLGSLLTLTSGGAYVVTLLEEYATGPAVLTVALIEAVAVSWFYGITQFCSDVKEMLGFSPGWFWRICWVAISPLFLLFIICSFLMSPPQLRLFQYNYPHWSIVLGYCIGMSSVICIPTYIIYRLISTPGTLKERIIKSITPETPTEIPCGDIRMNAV
Chain of nAChR formed by the α7 subunit isoform (Q05941 23-502): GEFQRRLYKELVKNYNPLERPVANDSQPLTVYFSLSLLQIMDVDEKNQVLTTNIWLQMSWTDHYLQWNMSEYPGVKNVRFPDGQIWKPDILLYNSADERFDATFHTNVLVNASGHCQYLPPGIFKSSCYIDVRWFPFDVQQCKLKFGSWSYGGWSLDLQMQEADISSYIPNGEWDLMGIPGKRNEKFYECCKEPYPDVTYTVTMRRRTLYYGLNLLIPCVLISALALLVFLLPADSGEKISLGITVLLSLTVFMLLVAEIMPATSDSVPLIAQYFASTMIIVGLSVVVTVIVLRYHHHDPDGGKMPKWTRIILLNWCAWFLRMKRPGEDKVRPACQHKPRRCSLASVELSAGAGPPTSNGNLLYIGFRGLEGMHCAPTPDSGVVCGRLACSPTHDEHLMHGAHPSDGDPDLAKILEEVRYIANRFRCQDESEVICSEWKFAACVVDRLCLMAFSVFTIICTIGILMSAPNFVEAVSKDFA
Chain of nAChR comprised of α4 and β2 subunits (P09483 31-630): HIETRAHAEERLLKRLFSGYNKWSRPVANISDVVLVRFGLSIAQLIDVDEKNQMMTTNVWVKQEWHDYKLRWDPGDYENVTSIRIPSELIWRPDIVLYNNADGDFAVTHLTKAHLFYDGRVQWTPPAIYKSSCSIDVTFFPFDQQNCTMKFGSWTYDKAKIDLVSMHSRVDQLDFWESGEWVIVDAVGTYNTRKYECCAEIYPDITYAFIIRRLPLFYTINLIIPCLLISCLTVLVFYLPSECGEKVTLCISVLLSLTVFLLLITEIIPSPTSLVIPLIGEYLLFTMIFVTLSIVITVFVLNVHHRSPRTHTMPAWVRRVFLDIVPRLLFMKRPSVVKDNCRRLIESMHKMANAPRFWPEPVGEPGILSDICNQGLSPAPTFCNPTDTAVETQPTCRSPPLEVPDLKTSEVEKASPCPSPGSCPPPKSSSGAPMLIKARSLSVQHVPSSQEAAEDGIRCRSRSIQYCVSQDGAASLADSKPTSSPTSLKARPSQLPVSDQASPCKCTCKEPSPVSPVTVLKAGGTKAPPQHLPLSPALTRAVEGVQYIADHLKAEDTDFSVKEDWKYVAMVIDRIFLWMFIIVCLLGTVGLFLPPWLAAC
Chain of nAChR comprised of α4 and β2 subunits (P12390 25-500): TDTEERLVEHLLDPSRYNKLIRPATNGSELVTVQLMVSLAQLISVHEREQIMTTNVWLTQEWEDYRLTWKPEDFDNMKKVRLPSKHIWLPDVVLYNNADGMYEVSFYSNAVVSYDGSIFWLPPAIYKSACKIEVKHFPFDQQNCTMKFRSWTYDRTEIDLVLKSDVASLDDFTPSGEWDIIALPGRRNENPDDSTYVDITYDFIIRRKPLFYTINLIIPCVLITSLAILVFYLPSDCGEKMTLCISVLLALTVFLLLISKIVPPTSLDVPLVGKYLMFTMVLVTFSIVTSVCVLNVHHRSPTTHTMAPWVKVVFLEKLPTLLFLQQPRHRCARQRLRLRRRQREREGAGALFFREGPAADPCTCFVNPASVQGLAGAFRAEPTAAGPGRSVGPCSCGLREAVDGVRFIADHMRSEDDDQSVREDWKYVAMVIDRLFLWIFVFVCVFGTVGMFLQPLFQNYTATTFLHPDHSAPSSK

As for `CN1C2CCC1CN(c1ccc3ccccc3c1)CC2` (racemic) [Compound 1, (±) 3-(2-Naphthalyl)-9-methyl-3,9-diazabicyclo-[4.2.1]-nonane], the half-inhibitory concentration (IC50) against serotonin transporter was determined as 40 nM.

Regarding `CN1C2CCC1CN(c1ccc3ccccc3n1)CC2` (racemic) [Compound 2, (±) 3-(2-Quinolinyl)-9-methyl-3,9-diazabicyclo-[4.2.1]-nonane], at serotonin transporter, the IC50 was 13 nM.

Turning to `CN1C2CCC1CN(c1ccc(Cl)c(Cl)c1)CC2` (racemic) [Compound A1, (±) 3-(3,4-Dichlorophenyl)-9-methyl-3,9-diazabicyclo-[4.2.1]-nonane], the IC50 against serotonin transporter was found to be 32 nM.

Turning to `c1ccc2ncc(N3CCC4CCC(C3)N4)cc2c1` (racemic) [Compound B5, (±) 3-(3-Quinolinyl)-9-H-3,9-diazabicyclo-[4.2.1]-nonane], on serotonin transporter, the IC50 was 49 nM.

In the case of `CN1C2CCC1CN(c1cncc(OCCOc3cncc(N4CCC5CCC(C4)N5C)c3)c1)CC2` (racemic) [Compound B7, (±) O,O′-bis-[5-(9-Methyl-3,9-diazabicyclo-[4.2.1]-nonan-3-yl)-3-pyridyl]-ethyleneglycol], the IC50 in assay [1] is > 10000 nM; in assay [2], 13 nM.

With `CN1C2CCC1CN(c1ccc(-c3ccccc3)nn1)CC2` (racemic) [Compound C2, (±) 3-(6-Phenyl-3-pyridazinyl)-9-methyl-3,9-diazabicyclo-[4.2.1]-nonane], the IC50 in assay [1] is 410 nM; in assay [2] (setting [3]) it was > 10000 nM.

As to `CN1C2CCC1CN(c1ccc3cc([N+](=O)[O-])ccc3n1)CC2` (racemic) [Compound C3, (±) 3-(6-Nitro-2-quinolinyl)-9-methyl-3,9-diazabicyclo-[4.2.1]-nonane], at serotonin transporter, the IC50 was determined as 3.7 nM.

As to `Cc1ccccc1-c1ccc(N2CCC3CCC(C2)N3C)cn1` (racemic) [Compound F1, (±) 3-[6-(2-Toluyl)-3-pyridyl]-9-methyl-3,9-diazabicyclo-[4.2.1]-nonane], the results for the IC50 in assay [1] and in assay [2] were 5500 nM and 99 nM, respectively.

Turning to `CN1C2CCC1CN(c1ccc(-c3ccsc3)nc1)CC2` (racemic) [Compound F5, (±) 3-[6-(3-Thienyl)-3-pyridyl]-9-methyl-3,9-diazabicyclo-[4.2.1]-nonane], the IC50 in assay [1] was determined as 280 nM; in assay [2] (setting [3]) it was 1500 nM.

Take `CN1CCC2CCC(C1)N2c1ccc(-c2ccccc2)nn1` (racemic) [Compound F10, (±) 3-Methyl-9-(6-phenyl-3-pyridazinyl)-3,9-diazabicyclo-[4.2.1]-nonane]: the IC50 worked out at 800 nM in assay [1] and 27000 nM in assay [2] (setting [3]).
